This experiment has as its target agglutinin 120 from Ricinus communis (RCA120) (Ricinus communis, UniProt P06750). The experiment in a line: biochemical. Type of experiment: binding.

The structures appear in SMILES notation.

The Kd is a measure of binding affinity in units of concentration. Read a low Kd as tighter binding. `CO[C@@H]1O[C@H](CO)[C@H](O)[C@H](O)[C@H]1O` [methyl-β-D-galactoside] came in with a Kd of 271 µM.

These data come from article PMC10853903 (Analytical Chemistry, 2024).
